According to patent US20130053347A1, “PRO-DRUGS OF AMARYLLIDACEAE ISOCARBOSTYRIL PRODUCTS AND THEIR USE AGAINST BRAIN TUMORS” (Universite Libre de Bruxelles, priority 2010, published 2013):

Tests used:
[1] = tested on: Hs683 human glioblastoma cells grafted into the brain of nude mice; experiment: human glioblastoma orthotopic model, survival; type: in vivo; conditions: 1 mg/kg once or twice per week during 5 consecutive weeks, intravenous or oral; two glioblastoma models (Hs683; GL-19 in FIG. 5)
Method: FIG. 5: anti-tumor effects of Narciclasine versus temozolomide in human primary brain tumor models. A and B: hematoxilin eosin staining of the brain tumors that developed into the brain of nude mice after intracranial graft of Hs683 and GL-19 human glioblastoma cells (NB: normal brain). Anti-tumor effects were evaluated in terms of animal survival in C and D. TMZ: temozolomide; schedule of administration is mentioned between brackets (“aXb” meaning “a” administrations per week during “b” weeks).
We evaluated the anti-cancer effects of Narciclasine at non toxic dose in two human glioblastoma (primary brain tumors) models (Hs683-model) that we grafted orthotopically directly into the brain of nude mice. […] The therapeutic schedule used here is even lower (one or two injections per week instead of 5 per week) and the administration route was intravenous or oral. […] The few promising NCI results have been obtained at doses higher than 1 mg/kg administered intraperitoneally or subcutaneously.

[2] = tested on: human NSCLC A549 cells grafted into the lungs of nude mice; experiment: NSCLC model, cells grafted into the lungs, survival; type: in vivo; conditions: A549 in lungs; Taxol 20 mg/kg, Narciclasine 1 mg/kg once per week during 5 consecutive weeks
Method: (§1) FIG. 6: anti-tumor effects of Narciclasine versus taxol in human NSCLC (non small cell lung carcinoma) models. The left panel illustrates the lungs of mice bearing lung tumor (tumor tissue is the white nodular one; pink part is the residual normal lung tissue) and hematoxilin eosin staining of the lung tumor (middle) and the brain metastasis that developed into the brain of nude mice after the graft of A549 human NSCLC cells into the lung (lower panel). Anti-tumor effects were evaluated in terms of animal survival when cells are grafted into the lungs (upper right graph) or directly into the brain (right lower panel). Taxol (dose: 20 mg/kg) and Narciclasine (dose: 1 mg/kg) were administered once per week during 5 consecutive weeks.
(§2) We tested also the anti-cancer effects of Narciclasine in non small cell lung carcinoma models (NSCLC). When human NSCLC A549 cells are grafted into the lungs of nude mice, those later develop lung tumors leading after to liver and brain metastases in 80% of the cases (Mathieu A et al, Cancer 2004).

[3] = tested on: A549 cells grafted directly into the brain of nude mice; experiment: NSCLC cells grafted into the brain, survival; type: in vivo, human; conditions: A549 in brain; Taxol 20 mg/kg, Narciclasine 1 mg/kg once per week during 5 consecutive weeks
Method: as §1, §2

[4] = tested on: human melanoma VM-21 cells grafted subcutaneously; experiment: subcutaneous melanoma model, survival; type: in vivo; conditions: VM-21 subcutaneous, nude mice; Narciclasine per os
Method: FIG. 7: anti-tumor effects of Narciclasine in human melanoma models. The left panel illustrates typical hematoxilin eosin staining of subcutaneous tumor and lung metastasis developed when VM-21 human melanoma cells are grafted subcutaneously in nude mice and their corresponding survival analysis. Narciclasine was administered per os while dacarbazine was administered intra-peritoneally. Doses and schedules appear on the graphs (ai X bw meaning “a” administrations per week during “b” weeks). The right panel illustrates typical hematoxilin eosin staining of human melanoma brain tumor developed into the brain when VM-48 human brain metastatic melanoma cells are grafted into the brain of nude mice and their corresponding survival analysis. Narciclasine and temozolomide (TMZ) were administered per os. Doses and schedules appear on the graphs (same legend than left panel).
Similarly, we grafted subcutaneously human melanoma VM-21 cells. This graft leads to tumor formation and further lung metastases as illustrated in FIG. 7. […] VM-48 cells have been isolated from a human brain metastasis of melanoma. We grafted those cells in their original environment, i.e. the brain to mimic human melanoma brain metastasis (FIG. 7).

[5] = tested on: VM-48 human brain metastatic melanoma cells grafted into the brain of nude mice; experiment: melanoma brain metastasis model, survival; type: in vivo; conditions: VM-48 in brain; intravenously 1 mg/kg twice a week during 3 consecutive weeks
cancer cells = conditions: cited from earlier work
mice = conditions: cited from earlier work
[6] = cited from earlier work

| Compound | therapeutic benefit in terms of survival [1] | survival of the animals [2] | survival benefits [3] | survival benefit [4] | animal survival [5] | IC50 (cancer cells) [nM] | maximal dose that can be administered without being toxic (mice; mice) | safe chronical dose (mice; mice) [mg/kg] | toxicity (mice; rodents, 1 mg/kg 5 times per week during three weeks at least) | plasmatic concentrations ([6]; 5 mg/kg dose, for few hours only) [nM] | oral bioavailability ([6]; mouse, in vivo, po) [%] |
| --- | --- | --- | --- | --- | --- | --- | --- | --- | --- | --- | --- |
| O=C1N[C@@H]2C(=C[C@H](O)[C@@H](O)[C@H]2O)c2cc3c(c(O)c21)OCO3 [Narciclasine] | significant and comparable therapeutic benefits | did not bring any increase in the survival | highly and significantly effective | could not bring any survival benefit | significant increase in terms of animal survival | 50 | around 1 mg/kg | 1 | without any toxicity | > 50 | 32 |
| CC(=O)O[C@H]1C(=O)[C@@]2(C)[C@H]([C@H](OC(=O)c3ccccc3)[C@]3(O)C[C@H](OC(=O)[C@H](O)[C@@H](NC(=O)c4ccccc4)c4ccccc4)C(C)=C1C3(C)C)[C@]1(OC(C)=O)CO[C@@H]1C[C@@H]2O [taxol] |  | did significantly | became inefficient |  |  |  |  |  |  |  |  |
